Where a SMILES comes first, the peptide text is derived from it. Bridges are numbered along the chain shown (N, C = ends). [ ]: non-standard residue; d: D form. The star is where a group is joined. DOTA = O=C(O)CN1CCN(CC(=O)O)CCN(CC(=O)*)CCN(CC(=O)O)CC1
Key:
hSST1R = biological target: T1, hSST1R (Homo sapiens, UniProt P30872); assay: Receptor autoradiography competition binding vs [125I]I-[LTT]SS28
T1 construct: expressed in transfected cells; host or cells: CHO cells, gift of Drs; T. Reisine and G. Singh
T1 sequence (P30872 whole entry): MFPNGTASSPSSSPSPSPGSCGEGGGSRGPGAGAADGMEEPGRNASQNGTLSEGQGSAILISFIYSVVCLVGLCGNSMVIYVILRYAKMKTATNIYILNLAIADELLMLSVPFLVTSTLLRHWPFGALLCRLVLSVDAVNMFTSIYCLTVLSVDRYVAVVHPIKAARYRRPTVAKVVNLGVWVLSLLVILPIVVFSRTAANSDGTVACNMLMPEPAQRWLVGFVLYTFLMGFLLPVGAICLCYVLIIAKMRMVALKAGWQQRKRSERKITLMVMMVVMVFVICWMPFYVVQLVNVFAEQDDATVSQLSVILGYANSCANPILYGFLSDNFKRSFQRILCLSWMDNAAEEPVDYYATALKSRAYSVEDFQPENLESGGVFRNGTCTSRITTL
Protocol: (§1) Cell membrane pellets were prepared from CHO-hSST1R cells, CCL39-hSST2R, CCL39-hSST3R, and CCL39-hSST4R cells, and HEK293-hSST2R cells and stored at −80 °C. Receptor autoradiography was performed on 20-μm-thick cryostat (Microm HM 500, Walldorf, Germany) sections of the membrane pellets mounted on microscope slides, and then stored at −20 °C, as previously described. […] The incubated sections were washed twice for 5 min in cold 170 mmol/L Tris-HCl (pH 8.2) containing 0.25% BSA. After a brief dip in 170 mmol/L Tris-HCl (pH 8.2), the sections were dried quickly and exposed for 1 week to Kodak BioMax MR film (Rochester, NY, USA). IC50 values were calculated after quantification of the data using a computer-assisted image processing system as described previously. Tissue standards (Autoradiographic [^125I] and/or [^14C] microscales, GE Healthcare; Little Chalfont, UK) that contain known amounts of isotope, cross-calibrated to tissue-equivalent ligand concentrations, were used for quantification.

hSST2R [1] = biological target: T2, hSST2R (Homo sapiens, UniProt P30874); assay: as above
T2 construct: expressed in transfected cells
T2 sequence (P30874 whole entry): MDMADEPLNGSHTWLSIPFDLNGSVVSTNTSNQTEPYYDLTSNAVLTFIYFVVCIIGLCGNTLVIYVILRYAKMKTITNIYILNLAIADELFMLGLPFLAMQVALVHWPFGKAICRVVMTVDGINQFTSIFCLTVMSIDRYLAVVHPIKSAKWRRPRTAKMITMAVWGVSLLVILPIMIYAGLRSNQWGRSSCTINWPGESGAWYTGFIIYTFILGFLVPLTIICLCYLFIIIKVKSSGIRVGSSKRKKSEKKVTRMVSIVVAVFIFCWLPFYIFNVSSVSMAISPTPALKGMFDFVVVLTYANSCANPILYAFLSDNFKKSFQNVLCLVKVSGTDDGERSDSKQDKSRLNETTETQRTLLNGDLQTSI
Protocol: as §1

hSST3R = biological target: T3, hSST3R (Homo sapiens, UniProt P32745); assay: as above
T3 construct: expressed in transfected cells; host or cells: CCL39 cells, gift of Dr. D. Hoyer (Novartis Pharma)
T3 sequence (P32745 whole entry): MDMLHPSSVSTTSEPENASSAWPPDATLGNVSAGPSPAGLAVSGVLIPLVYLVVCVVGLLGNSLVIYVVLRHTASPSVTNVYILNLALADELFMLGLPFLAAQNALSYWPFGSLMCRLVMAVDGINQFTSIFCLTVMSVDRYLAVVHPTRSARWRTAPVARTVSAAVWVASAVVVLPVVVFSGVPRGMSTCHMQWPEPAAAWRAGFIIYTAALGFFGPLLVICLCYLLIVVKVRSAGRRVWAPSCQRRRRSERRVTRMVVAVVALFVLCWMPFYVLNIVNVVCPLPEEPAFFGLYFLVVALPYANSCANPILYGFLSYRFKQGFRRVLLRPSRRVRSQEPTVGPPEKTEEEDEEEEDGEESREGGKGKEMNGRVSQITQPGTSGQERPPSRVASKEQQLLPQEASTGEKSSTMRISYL
Protocol: as §1

hSST5R = biological target: T4, hSST5R (Homo sapiens, UniProt P35346); assay: as above
T4 construct: expressed in transfected cells
T4 sequence (P35346 whole entry): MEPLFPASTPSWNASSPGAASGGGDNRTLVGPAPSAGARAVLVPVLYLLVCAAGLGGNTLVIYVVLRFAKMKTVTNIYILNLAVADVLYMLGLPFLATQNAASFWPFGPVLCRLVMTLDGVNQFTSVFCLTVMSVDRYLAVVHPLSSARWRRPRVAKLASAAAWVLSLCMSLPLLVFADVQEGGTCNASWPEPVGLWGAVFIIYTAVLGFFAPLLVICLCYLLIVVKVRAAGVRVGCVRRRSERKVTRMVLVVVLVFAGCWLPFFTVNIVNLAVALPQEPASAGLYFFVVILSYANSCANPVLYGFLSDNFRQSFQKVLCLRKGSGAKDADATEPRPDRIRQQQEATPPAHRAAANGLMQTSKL

hSST2R [2] = biological target: T2, hSST2R; assay: Immunofluorescence microscopy-based internalization assay in HEK293-hSST2R cells; assay type: cell-based; conditions: 1 µM, 30 min at 37 °C
Protocol: Figure 3 Agonist stimulated hSST2R-internalization in HEK293-hSST2R cells determined by immunofluorescence microscopy.
An immunofluorescence microscopy-based internalization assay for hSST2R was performed in HEK293-hSST2R cells, grown on poly-DLys (20 μg/mL) (Sigma-Aldrich, St. Louis, MO, USA) coated 35-mm four-well plates (Cellstar, Greiner Bio-One GmbH, Frickenhausen, Germany). […] HEK293-hSST2R cells treated with vehicle alone were used as a negative control. The cells were then rinsed twice with PS (100 mM phosphate buffer containing 0.15 M sucrose), fixed and permeabilized for 7 min with cold methanol (−20 °C), rinsed twice with PS, and then blocked for 60 min at room temperature with PS containing 0.1% BSA. Next, cells were incubated for 60 min at room temperature with the hSST2R-specific primary antibody R2-88 (provided by Dr. A. Schönbrunn, Houston, TX, USA) diluted 1:1000 in PS and washed 3 × 5 min with PS containing 0.1% BSA. The cells were incubated for 60 min at room temperature in the dark with the secondary antibody Alexa Fluor 488 goat anti-rabbit IgG (H+ L) (Molecular Probes, Inc., Eugene, OR, USA) diluted in PS (1:600), washed 3 × 5 min with PS containing 0.1% BSA, embedded with PS/glycerol 1:1, and covered with a glass cover slip. The cells were imaged using a Leica DM RB immunofluorescence microscope (Leica, Deerfield, IL, USA) and an Olympus DP10 camera (Olympus Corporation, Shinjuku, Tokyo, Japan).

Compound	IC50 (hSST1R) [nM]	drop in binding affinity for hSST1R compared with native hormone (hSST1R; vs SS14) [fold]	IC50 (hSST2R [1]) [nM]	lower affinity for hSST2R compared with AT2S (hSST2R [1]; vs AT2S) [fold]	drop in binding affinity for hSST2R compared with native hormone (hSST2R [1]; vs SS14) [fold]	IC50 (hSST3R) [nM]	lower affinity for hSST3R compared with AT2S (hSST3R; vs AT2S)	drop in binding affinity for hSST3R compared with native hormone (hSST3R; vs SS14)	IC50 (hSST5R) [nM]	lower affinity for hSST5R compared with AT2S (hSST5R; vs AT2S) [fold]	drop in binding affinity for hSST5R compared with native hormone (hSST5R; vs SS14) [fold]	ligand-induced hSST2R internalization (agonism) (hSST2R [2])
C[C@H](NC(=O)CN1CCN(CC(=O)O)CCN(CC(=O)O)CCN(CC(=O)O)CC1)C(=O)NCC(=O)N[C@H]1CSSC[C@@H](C(=O)O)NC(=O)[C@H](CO)NC(=O)[C@@H]2CSSC[C@H](NC(=O)[C@H](CCCCN)NC1=O)C(=O)N[C@@H](Cc1ccccc1)C(=O)N[C@@H](Cc1ccccc1)C(=O)N[C@H](Cc1c[nH]c3ccccc13)C(=O)N[C@@H](CCCCN)C(=O)N[C@@H]([C@@H](C)O)C(=O)N[C@@H](Cc1ccccc1)C(=O)N2 [AT6S, DOTA-Ala^1-Gly^2-c[Cys^3-Lys^4-c[Cys^5-Phe^6-Phe^7-DTrp^8-Lys^9-Thr^10-Phe^11-Cys^12]-Ser^13-Cys^14]] ({DOTA}-AGCKCFF[dW]KTFCSC-OH; disulfide 3-14, 5-12)	12 ± 3.3	< 6	6.3 ± 0.6	< 4	9	9.7 ± 3.6	≈ 4 fold	≈ 3 fold	26 ± 7	< 2	< 6	behaved as a potent agonist
DOTA-Ala^1-Gly^2-c[Cys^3-Lys^4-Asn^5-Phe^6-Phe^7-Trp^8-Lys^9-Thr^10-Phe^11-Thr^12-Ser^13-Cys^14-OH] [AT1S, reference compound]	–	–	–	–	–	–	–	–	–	–	–	clearly able to trigger the internalization of hSST2R
